From article PMC3306502 (Cancer research, 2012)

Assays:
[1] = system: PC-3 prostate cancer cells; experiment: growth of AR-negative PC-3 cells
AR = AR binding-assay using MDA-MB-453 cell-extracts
AR-regulated genes = experiment: qRT-PCR analysis of AR-regulated genes in LNCaP/AR; details: absence of R1881; up to 10 μM
LNCaP/AR(cs) xenografts = experiment: LNCaP/AR; details: 28d, intact (non-castrate) mice
[2] = system: LNCaP/AR(cs) xenograft tumors; experiment: LNCaP/AR; details: for tumors with >50% regression (volume): 10 mg/kg/day daily-gavage
[3] = steady-state plasma- and brain-tissue levels in mice; details: 10 mg/kg/day; for Brain C24hr / Plasma C24hr: 28d daily-dosing; for Brain C24hr: 24h after final-dose; for Plasma C24hr: 24h after final-dose (brain study); for Kp: mouse, brain
VCaP cells = experiment: VCaP proliferation assay; details: 7d treatment; for VCaP proliferation, antagonist-mode: with 30pM R1881; for VCaP proliferation, agonist-mode: without R1881
LNCaP/AR tumors = experiment: Ki67 IHC and TUNEL-staining of LNCaP/AR tumor-tissue from castrate mice; details: 10 mg/kg/day, 25d
[4] = system: LNCaP/AR-luc xenograft tumors; experiment: luciferase-imaging of LNCaP/AR-luc xenograft tumors in castrate male mice; details: 10 mg/kg/day oral, 17 days
prostate and epididymis = details: 10 mg/kg/day for 28 days
[5] = steady-state plasma and tumor-tissue concentrations in LNCaP/AR; details: for Plasma C24hr / Tumor C24hr: 28d dosing, mean ± SD; for Plasma C24hr: 24h after final dose; for Tumor C24hr: LNCaP/AR(cs) xenograft tumor-tissue; for Kp: mouse, tumor, oral
CRPC [6] = details: chemotherapy-naïve and -treated CRPC patients; cited from earlier work
CRPC [7] = details: plus prednisone; CRPC patients previously treated with docetaxel; cited from earlier work

For `CNC(=O)c1ccc(N2C(=S)N(c3cnc(C#N)c(C(F)(F)F)c3)C(=O)C23CCC3)cc1F` [ARN-509], the oral bioavailability (dog pharmacokinetics) was “high”, the plasma half-life (dog pharmacokinetics) was “long” and the oral bioavailability (mouse pharmacokinetics) was “high”. For the same compound, the plasma half-life (mouse pharmacokinetics) was “long”, the “effect on growth of AR-negative PC-3 cells” value [1] was “no significant effect on growth” and the “AR binding in cell-extracts, ARN-509 vs bicalutamide” value (AR) was “does not differentiate between ARN-509 and bicalutamide”. The “agonist activity on AR-regulated gene expression” value (“agonist activity” for short) (AR-regulated genes) was “did not exhibit agonist activity”, the anti-tumor effect (LNCaP/AR(cs) xenografts; 10 mg/kg/day) was “largely confined to stabilization of tumor-growth” and the “animals with robust tumor-regression (>50% reduction in starting tumor volume)” value (LNCaP/AR(cs) xenografts; 30 mg/kg/day) was 6/8. The “tumors with >50% regression (volume)” value ([2]; day 28, castrate mice) was 8/10, the “tumors no longer palpable” value ([2]; 10 mg/kg/day, day 28, of 10 tumors) was 2 and the “animals with >50% reduction in tumor-volume” value (“animals with >50% reduction” for short) ([2]; 100 mg/kg/day, day 28, castrate mice) was 13/19. The “optimal biological dose (OBD: lowest dose yielding maximum efficacy)” value ([2]; LNCaP/AR model) was 10–30 mg/kg/day, the “Brain C24hr” value [3] was 0.479 ± 0.132 µg/g and the “Plasma C24hr” value [3] was 1640 ± 300 ng/mL. For the same compound, the Kp [3] was 0.293 ± 0.063, the “VCaP proliferation, antagonist-mode” value (VCaP cells) was “antagonized the proliferative effect of R1881” and the “VCaP proliferation, agonist-mode” value (VCaP cells) was “fails to stimulate proliferation”. The “increase in apoptotic rate (TUNEL) versus vehicle” value (LNCaP/AR tumors) was 10 fold, the “androgen-driven luciferase reporter-gene activity normalized to tumor volume, vs vehicle” value [4] was “consistently reduced” and the “apoptotic-rate in dog prostates (TUNEL-staining)” value (prostate and epididymis) was “no change in apoptotic-rate”. The “epididymis histopathology / spermatozoa” value (prostate and epididymis) was “contained minimal spermatozoa”, the prostate histopathology (prostate and epididymis) was “lack of glandular secretory activity” and the “reduction in epididymis weight” value (prostate and epididymis; not statistically significant) was 1.7 fold. For the same compound, the “reduction in weight of dog prostates” value (prostate and epididymis; p<0.05 vs vehicle) was 3 fold, the “Plasma C24hr” value ([5]; 1 mg/kg/day) was 425 ± 160 ng/mL and the “Tumor C24hr” value ([5]; 1 mg/kg/day) was 0.991 ± 0.30 µg/g. For the same compound, the “Plasma C24hr” value ([5]; 10 mg/kg/day) was 3310 ± 980 ng/mL, the “Tumor C24hr” value ([5]; 10 mg/kg/day) was 3.26 ± 0.82 µg/g and the Kp ([5]; 1 mg/kg/day) was 2.59 ± 0.11. The Kp ([5]; 10 mg/kg/day) was 1.07 ± 0.44.
For `CNC(=O)c1ccc(N2C(=S)N(c3ccc(C#N)c(C(F)(F)F)c3)C(=O)C2(C)C)cc1F` [MDV3100, reference compound], the “patients with significant serum-PSA responses (>50% decrease)” value (CRPC [6]) is given as greater than 50%, the “agonist activity” value (AR-regulated genes) is given as “did not exhibit agonist activity” and the “animals with >50% reduction” value ([2]; 30 mg/kg/day, day 28, castrate mice) is given as 3 of 19. The “animals with >50% reduction” value ([2]; mouse, in vivo) was 12/19, the “optimal biological dose (OBD: lowest dose yielding maximum efficacy)” value ([2]; mouse, in vivo) was 30–100 mg/kg/day and the “Brain C24hr” value [3] was 2.01 ± 0.83 µg/g. For the same compound, the “Plasma C24hr” value [3] was 10500 ± 2300 ng/mL, the Kp [3] was 0.188 ± 0.044 and the “Plasma C24hr” value ([5]; 1 mg/kg/day) was 1080 ± 260 ng/mL. For the same compound, the “Tumor C24hr” value ([5]; 1 mg/kg/day) was 0.439 ± 0.12 µg/g, the “Plasma C24hr” value ([5]; 10 mg/kg/day) was 11000 ± 2500 ng/mL and the “Tumor C24hr” value ([5]; 10 mg/kg/day) was 3.39 ± 1.50 µg/g.
In the case of `CC(=O)O[C@H]1CC[C@@]2(C)C(=CC[C@@H]3[C@@H]2CC[C@]2(C)C(c4cccnc4)=CC[C@@H]32)C1` [abiraterone acetate], the “increase in overall survival over control (prednisone only)” value (CRPC [7]) is given as 3.9 months.
For `CC(O)(CS(=O)(=O)c1ccc(F)cc1)C(=O)Nc1ccc(C#N)c(C(F)(F)F)c1` (stereo not drawn) [bicalutamide, reference compound], the “agonist activity” value (AR-regulated genes) was “altered gene-expression consistent with its well-documented agonist activity”, the “tumors with >50% regression (volume)” value ([2]; day 28, castrate mice) was 1/10 and the “VCaP proliferation, antagonist-mode” value (VCaP cells) was “only partially antagonized the effects of R1881”. The “VCaP proliferation, agonist-mode” value (VCaP cells) was “induced cell-proliferation in a dose-dependent manner”.
